Several values for one entry are separate records, joined by “and”; a condition that tells them apart may be missing. Equal entries are not always repeated. Toxic doses and inconclusive results are not listed. Cut-off read from the data, not from the text of the source: active = T/C of 150% or more; inactive = T/C below 125%.
Test system: L1210 leukemia ip in BDF1 mice, survival T/C
Test: NCI In Vivo Anticancer Drug Screen. Data for tumor model L1210 Leukemia (intraperitoneal) in B6D2F1 (BDF1) mice
Conditions: endpoint: mean survival time, higher = longer survival
Summary of the method: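 Value reflects the ratio of survival in compound-treated mice to survival in vehicle-treated controls, with both groups carrying the same transplanted tumor.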

[1] = dose: 100.0 mg/kg/injection, schedule: Q01DX001 (ip), vehicle: saline
[2] = dose: 100.0 mg/kg/injection, schedule: Q01DX009 (ip), vehicle: saline with Tween-80
[3] = dose: 100.0 mg/kg/injection, schedule: Q04DX003 (ip), vehicle: saline with Tween-80
[4] = dose: 200.0 mg/kg/injection, schedule: Q01DX001 (ip), vehicle: saline
[5] = dose: 200.0 mg/kg/injection, schedule: Q01DX009 (ip), vehicle: saline with Tween-80
[6] = dose: 200.0 mg/kg/injection, schedule: Q04DX003 (ip), vehicle: saline with Tween-80
[7] = dose: 400.0 mg/kg/injection, schedule: Q01DX001 (ip), vehicle: saline
[8] = dose: 400.0 mg/kg/injection, schedule: Q01DX009 (ip), vehicle: saline with Tween-80
[9] = dose: 400.0 mg/kg/injection, schedule: Q04DX003 (ip), vehicle: saline with Tween-80
[10] = dose: 100.0 mg/kg/injection, schedule: Q01DX009 (ip), vehicle: Klucel (hydroxypropylcellulose) (HPC)
[11] = dose: 100.0 mg/kg/injection, schedule: Q04DX003 (ip), vehicle: Klucel (hydroxypropylcellulose) (HPC)
[12] = dose: 200.0 mg/kg/injection, schedule: Q04DX003 (ip), vehicle: Klucel (hydroxypropylcellulose) (HPC)
[13] = dose: 400.0 mg/kg/injection, schedule: Q04DX003 (ip), vehicle: Klucel (hydroxypropylcellulose) (HPC)
[14] = dose: 200.0 mg/kg/injection, schedule: Q01DX009 (ip), vehicle: Klucel (hydroxypropylcellulose) (HPC)
[15] = dose: 400.0 mg/kg/injection, schedule: Q01DX009 (ip), vehicle: Klucel (hydroxypropylcellulose) (HPC)
[16] = dose: 100.0 mg/kg/injection, schedule: Q04DX002 (ip), vehicle: Klucel (hydroxypropylcellulose) (HPC)
[17] = dose: 50.0 mg/kg/injection, schedule: Q01DX001 (ip), vehicle: carboxymethylcellulose (CMC)
[18] = dose: 100.0 mg/kg/injection, schedule: Q01DX001 (ip), vehicle: carboxymethylcellulose (CMC)
[19] = dose: 200.0 mg/kg/injection, schedule: Q01DX001 (ip), vehicle: carboxymethylcellulose (CMC)
[20] = dose: 400.0 mg/kg/injection, schedule: Q01DX001 (ip), vehicle: carboxymethylcellulose (CMC)
[21] = dose: 100.0 mg/kg/injection, schedule: Q04DX002 (ip), vehicle: saline with Tween-80
[22] = dose: 200.0 mg/kg/injection, schedule: Q04DX002 (ip), vehicle: saline with Tween-80

Measured: T/C

O=C(O)C1C2CC3C(OC(=O)C31)C2Br (stereo unspecified)
inactive: [1] 104 % of control | [2] 91 % of control | [3] 91 % of control | [4] 94 % of control | [5] 96 % of control | [6] 100 % of control | [7] 97 % of control | [8] 91 % of control | [9] 104 % of control

O=C(O)CNc1cccc([N+](=O)[O-])c1
inactive: dose: 65.0 mg/kg/injection, schedule: Q01DX009 (ip), vehicle: Klucel (hydroxypropylcellulose) (HPC) 100 % of control | [10] 100 % of control | [11] 98 % of control | dose: 150.0 mg/kg/injection, schedule: Q01DX009 (ip), vehicle: Klucel (hydroxypropylcellulose) (HPC) 94 % of control | [12] 93 % of control | [13] 101 % of control

[Cl][Rh][Cl].[NH-]c1nccs1.[NH-]c1nccs1.[NH-]c1nccs1.[NH-]c1nccs1
inactive: dose: 3.13 mg/kg/injection, schedule: Q04DX003 (ip), vehicle: distilled water + Tween-80 103 % of control | dose: 6.25 mg/kg/injection, schedule: Q04DX003 (ip), vehicle: distilled water + Tween-80 96 % of control | dose: 12.5 mg/kg/injection, schedule: Q04DX003 (ip), vehicle: distilled water + Tween-80 97 % of control | dose: 25.0 mg/kg/injection, schedule: Q04DX003 (ip), vehicle: distilled water + Tween-80 96 % of control | dose: 50.0 mg/kg/injection, schedule: Q04DX003 (ip), vehicle: distilled water + Tween-80 103 % of control | dose: 100.0 mg/kg/injection, schedule: Q04DX003 (ip), vehicle: distilled water + Tween-80 102 % of control | dose: 200.0 mg/kg/injection, schedule: Q04DX003 (ip), vehicle: distilled water + Tween-80 103 % of control

Cc1cccc(C)c1NC(=O)NC(C)C
inactive: [10] 106 % of control | [11] 93 % of control | [14] 94 % of control | [12] 94 % of control | [15] 99 % of control | [13] 93 % of control

CC1CCCC1Sc1ccccc1 (stereo unspecified)
inactive: [1] 91 % of control | dose: 100.0 mg/kg/injection, schedule: Q01DX009 (ip), vehicle: acetone 99 % of control | [4] 91 % of control | dose: 200.0 mg/kg/injection, schedule: Q01DX009 (ip), vehicle: acetone 106 % of control | [7] 93 % of control | dose: 400.0 mg/kg/injection, schedule: Q01DX009 (ip), vehicle: acetone 92 % of control

CCNC(c1ccccc1)C(O)c1ccccc1 (stereo unspecified)
inactive: dose: 50.0 mg/kg/injection, schedule: Q04DX002 (ip), vehicle: Klucel (hydroxypropylcellulose) (HPC) 94 % of control | [10] 104 % of control | [16] 105 % of control | [14] 102 % of control

CS(=O)c1ccc2c(c1)-c1ccccc1C2=O (stereo unspecified)
inactive: [17] 95 % of control | [18] 101 % of control | [19] 95 % of control | [20] 101 % of control

O=C(O)COc1ccc(F)c(F)c1
inactive: [16] 90 % of control | dose: 200.0 mg/kg/injection, schedule: Q04DX002 (ip), vehicle: Klucel (hydroxypropylcellulose) (HPC) 104 % of control | dose: 400.0 mg/kg/injection, schedule: Q04DX002 (ip), vehicle: Klucel (hydroxypropylcellulose) (HPC) 93 % of control

CC(=O)Nc1c(Cl)c(Cl)c2c(c1Cl)Cc1cc(F)ccc1-2
inactive: dose: 62.5 mg/kg/injection, schedule: Q01DX Z (ip), vehicle: saline 97 % of control | [3] 101 % of control | dose: 125.0 mg/kg/injection, schedule: Q01DX Z (ip), vehicle: saline 95 % of control | [6] 93 % of control | dose: 250.0 mg/kg/injection, schedule: Q01DX Z (ip), vehicle: saline 101 % of control | [9] 95 % of control | dose: 500.0 mg/kg/injection, schedule: Q01DX Z (ip), vehicle: saline 95 % of control | dose: 650.0 mg/kg/injection, schedule: Q01DX Z (ip), vehicle: saline 96 % of control | dose: 800.0 mg/kg/injection, schedule: Q01DX Z (ip), vehicle: saline 102 % of control

COc1ccc(CN2CCCN(Cc3ccc(OC)cc3OC)C2c2ccc(N(CCCl)CCCl)cc2C)c(OC)c1
inactive: [17] 106 % of control | [18] 104 % of control | [19] 106 % of control | [20] 112 % of control

O=C(c1ccccc1)c1ccc(Cl)c([N+](=O)[O-])c1
inactive: dose: 50.0 mg/kg/injection, schedule: Q01DX001 (ip), vehicle: saline 103 % of control | [1] 100 % of control | [4] 91 % of control | [7] 97 % of control

COC(=O)N1C=C2C(C)=CC1C(C#N)(C#N)C2(C#N)C#N (stereo unspecified)
inactive: dose: 10.0 mg/kg/injection, schedule: Q01DX001 (ip), vehicle: saline 105 % of control and 87 % of control | dose: 40.0 mg/kg/injection, schedule: Q01DX001 (ip), vehicle: saline 98 % of control

O=C(O)C1(C(=O)O)C=CCCC1
inactive: dose: 100.0 mg/kg/injection, schedule: Q01DX009 (ip), vehicle: saline + alcohol 89 % of control | [11] 100 % of control | dose: 200.0 mg/kg/injection, schedule: Q01DX009 (ip), vehicle: saline + alcohol 102 % of control | [12] 97 % of control | [13] 107 % of control

Cc1nccc2c1[nH]c1cc(N)ccc12.[Cl][Sn][Cl]
inactive: dose: 5.0 mg/kg/injection, schedule: Q04DX003 (ip), vehicle: saline with Tween-80 102 % of control | dose: 10.0 mg/kg/injection, schedule: Q04DX003 (ip), vehicle: saline with Tween-80 94 % of control | dose: 20.0 mg/kg/injection, schedule: Q04DX003 (ip), vehicle: saline with Tween-80 96 % of control

CCC1c2ccc3cc(OC)ccc3c2CC1CC(=O)O (stereo unspecified)
inactive: dose: 100.0 mg/kg/injection, schedule: Q04DX003 (ip), vehicle: saline 92 % of control | dose: 200.0 mg/kg/injection, schedule: Q04DX003 (ip), vehicle: saline 92 % of control | dose: 400.0 mg/kg/injection, schedule: Q04DX003 (ip), vehicle: saline 86 % of control

CC(C)(C)C1CCC2(CC1)CC(=O)N(N1CCCCCC1)C(=O)C2
inactive: [17] 95 % of control | [18] 101 % of control | [19] 95 % of control | [20] 104 % of control

Cc1ccccc1C(C)(O)c1cnc(C)n1Cc1ccccc1 (stereo unspecified)
inactive: [2] 94 % of control and 98 % of control | [21] 97 % of control and 103 % of control | [5] 95 % of control and 103 % of control | [22] 97 % of control and 100 % of control | [8] 98 % of control and 100 % of control | dose: 400.0 mg/kg/injection, schedule: Q04DX002 (ip), vehicle: saline with Tween-80 95 % of control and 101 % of control

Br/C1=C/CCCCCC1
inactive: dose: 75.0 mg/kg/injection, schedule: Q04DX003 (ip), vehicle: saline 102 % of control | dose: 150.0 mg/kg/injection, schedule: Q04DX003 (ip), vehicle: saline 96 % of control

CC(=O)OC(C(=O)c1ccccc1)c1ccccc1 (stereo unspecified)
inactive: [10] 94 % of control | [11] 104 % of control | [14] 94 % of control | [12] 104 % of control | [15] 104 % of control | [13] 91 % of control

O=[N+]([O-])c1cc([N+](=O)[O-])c(/C=C/c2ccccc2)c([N+](=O)[O-])c1/C=C/c1ccccc1
inactive: [10] 104 % of control | [11] 97 % of control | [14] 98 % of control | [12] 101 % of control | [15] 98 % of control | [13] 97 % of control

CCOC(=O)C(CO)(CO)C(=O)OCC
inactive: dose: 100.0 mg/kg/injection, schedule: Q01DX009 (ip), vehicle: saline 106 % of control | dose: 200.0 mg/kg/injection, schedule: Q01DX009 (ip), vehicle: saline 92 % of control | dose: 400.0 mg/kg/injection, schedule: Q01DX009 (ip), vehicle: saline 100 % of control

C=CCN(CC#N)CC#N
inactive: dose: 5.0 mg/kg/injection, schedule: Q04DX003 (ip), vehicle: Klucel (hydroxypropylcellulose) (HPC) 98 % of control | dose: 10.0 mg/kg/injection, schedule: Q04DX003 (ip), vehicle: Klucel (hydroxypropylcellulose) (HPC) 100 % of control (2×) and 86 % of control

CCCCC(=O)N1CCCCCC1
inactive: [21] 105 % of control | [22] 87 % of control

Source: PubChem BioAssay AID248 (DTP/NCI, 2004)
